This passage reports IC50 cytotoxicity (DAPI nuclear signal decrease) and IC50 results from PubChem BioAssay AID651630 (Sanford-Burnham Center for Chemical Genomics, 2012).

Structures are written as SMILES. Active and inactive are the calls of the source.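 Rule for the calls: active = lipid-stain IC50 at or below a set limit, with nuclear-stain toxicity IC50 at least five times higher; inactive = the rest.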

Test [1] deals with DAPI. The test is described as follows: triacylglycerol accumulation inhibitor potency, dose response, cell-based, panel, Nile Red and DAPI fluorescence, H9c2 (AID 651630).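 Note: cells exposed to compound overnight before fixation and staining.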 The following applies: H9c2 cells, DAPI nuclear fluorescence (cytotoxicity counter-readout), oleic acid.
The test system of test [2] is TAG. Described as above. Conditions: H9c2 cells, Nile Red TAG fluorescence, oleic acid.

Broadly, the IC50 is the concentration that gives 50% inhibition. For the compound `COc1ccc(CNC(=O)C[C@H]2C[C@H](C(=O)N3CCCCC3)[C@@]3(CCc4ccccc4)c4[nH]c5ccc(Cl)cc5c4CCN3C2=O)cc1OC`, the IC50 cytotoxicity (DAPI nuclear signal decrease) in test [1] (mean of runs) is > 25 µM (inactive); in test [1] (run 1), above 25 µM; in test [1] (run 2), above 25 µM. Also, the half-inhibitory concentration (IC50) in test [2] (mean of runs) is 10 µM; in test [2] (run 1) it was 9.61 µM; in test [2] (run 2), 10.4 µM.

As to `O=C(CC1C[C@H](C(=O)N2CCOCC2)[C@@]2(CCC3CCCC3)c3[nH]c4ccccc4c3CCN2C1=O)NCC12CC3CC(CC(C3)C1)C2` (stereo not given in full), the figures for the IC50 cytotoxicity (DAPI nuclear signal decrease) in test [1] (mean of runs), in test [1] (run 1) and in test [1] (run 2) were > 25 µM (inactive), above 25 µM and above 25 µM, respectively. Further, the IC50 in test [2] (mean of runs) was > 25 µM (inactive); in test [2] (run 1) it was above 25 µM; in test [2] (run 2), above 25 µM.

Regarding `CCC1(O)CC2CN(CCc3c([nH]c4ccccc34)C(C(=O)OC)(c3cc4c(cc3OC)N(C=O)C3C(O)(C(=O)OC)C(OC(C)=O)C5(CC)C=CCN6CCC43C65)C2)C1` (stereo not given), the IC50 cytotoxicity (DAPI nuclear signal decrease) is > 25 µM (inactive) in test [1] (mean of runs), above 25 µM in test [1] (run 1) and above 25 µM in test [1] (run 2). Moreover, the half-inhibitory concentration (IC50) in test [2] (run 1) was below 0.78 µM; in test [2] (run 2) it was above 25 µM.

Consider `COc1cc(C2c3cc4c(cc3OC(C)(N3CCCC3)C2C)OCO4)cc(OC)c1OC` (stereo not given), for which the values for the IC50 cytotoxicity (DAPI nuclear signal decrease) in test [1] (mean of runs), in test [1] (run 1) and in test [1] (run 2) were > 25 µM (inactive), above 25 µM and above 25 µM, respectively. The IC50 in test [2] (mean of runs) was 13.8 µM; in test [2] (run 1), 10.4 µM; in test [2] (run 2) it was 17.1 µM.

Regarding `C#CCN(C[C@@H]1[C@@H](OC(=O)NCC2CCCCC2)[C@@H](OC(=O)NCC2CCCCC2)CN(C(=O)OC(C)C)N1C(=O)OC(C)C)S(=O)(=O)c1ccc(C)cc1`, the results for the IC50 cytotoxicity (DAPI nuclear signal decrease) in test [1] (mean of runs), in test [1] (run 1) and in test [1] (run 2) were > 25 µM (inactive), above 25 µM and above 25 µM, respectively. For the same compound, the half-inhibitory concentration (IC50) was 10.6 µM in test [2] (mean of runs), 10.1 µM in test [2] (run 1) and 11.2 µM in test [2] (run 2).

`CCCCCc1cc(=O)oc2c(C(CCN(CC)CC)c3ccc(N(C)C)cc3)c(OC)cc(OC)c12` (stereo not given): the IC50 cytotoxicity (DAPI nuclear signal decrease) in test [1] (mean of runs) is > 25 µM (inactive); in test [1] (run 1), above 25 µM; in test [1] (run 2), above 25 µM. The IC50 in test [2] (run 1) was above 25 µM; in test [2] (run 2), 17.5 µM.

Turning to `Cc1ccc(-c2cc(C(F)F)n3ncc(C(=O)Nc4c(C)nn(Cc5c(Cl)cccc5Cl)c4C)c3n2)cc1`, the IC50 cytotoxicity (DAPI nuclear signal decrease) was > 25 µM (inactive) in test [1] (mean of runs), above 25 µM in test [1] (run 1) and above 25 µM in test [1] (run 2). Further, the IC50 was > 25 µM (inactive) in test [2] (mean of runs), above 25 µM in test [2] (run 1) and above 25 µM in test [2] (run 2).

`Nc1ccccc1C#Cc1ccccc1`: the IC50 cytotoxicity (DAPI nuclear signal decrease) was > 25 µM (inactive) in test [1] (mean of runs), above 25 µM in test [1] (run 1) and above 25 µM in test [1] (run 2). For the same compound, the figures for the IC50 in test [2] (mean of runs), in test [2] (run 1) and in test [2] (run 2) were 10.9 µM, 8.79 µM and 13.1 µM, respectively.

In the case of `Nc1ccc2ccccc2c1N=Nc1ccccc1`, the IC50 cytotoxicity (DAPI nuclear signal decrease) in test [1] (mean of runs) was > 25 µM (inactive); in test [1] (run 1) it was above 25 µM; in test [1] (run 2) it was above 25 µM. For the same compound, the results for the IC50 in test [2] (mean of runs), in test [2] (run 1) and in test [2] (run 2) were 9.51 µM, 8.88 µM and 10.1 µM, respectively.

In the case of `CCc1ccc(-c2nc(C(N)=O)c3[nH]c(=O)n(-c4ccccc4OC)c3n2)cc1`, the IC50 cytotoxicity (DAPI nuclear signal decrease) in test [1] (run 1) and in test [1] (run 2) was above 25 µM in each case. Moreover, the IC50 in test [2] (mean of runs) was 2.73 µM; in test [2] (run 1), 2.74 µM; in test [2] (run 2) it was 2.71 µM.

In the case of `Cc1ccc(CNC(=O)c2ccc(N3CCC4(CC3)CC(c3ccccc3)=NO4)c(NC(=O)c3ccc(Br)cc3)c2)cc1`, the IC50 cytotoxicity (DAPI nuclear signal decrease) in test [1] (run 1) and in test [1] (run 2) was above 25 µM in each case. Moreover, the IC50 in test [2] (mean of runs) was 4.43 µM; in test [2] (run 1), 3.68 µM; in test [2] (run 2), 5.18 µM.

Turning to `CCOC(=O)c1c(NC(C)=O)sc2c(OCC(O)CN(CC)CC)c(Br)ccc12` (stereo not given), the IC50 cytotoxicity (DAPI nuclear signal decrease) in test [1] (mean of runs) was > 25 µM (inactive); in test [1] (run 1), above 25 µM; in test [1] (run 2), above 25 µM. Besides, the results for the IC50 in test [2] (run 1) and in test [2] (run 2) were above 25 µM and 22.1 µM, respectively.

For `C=CC[C@@H](CC(=O)N(CCO)Cc1ccccc1)C(=O)N[C@H](COC(=O)[C@@H](CC=C)Cc1ccc(F)cc1)C(C)(C)C`, the IC50 cytotoxicity (DAPI nuclear signal decrease) in test [1] (run 1) and in test [1] (run 2) was above 25 µM each time. In addition, the IC50 was 4.28 µM in test [2] (mean of runs), 3.51 µM in test [2] (run 1) and 5.05 µM in test [2] (run 2).

On to `CCCCNc1c(-c2ccc(-c3ccc(C(C)=O)cc3)c(OC)c2)nc2cc(C)ccn12`, for which the IC50 cytotoxicity (DAPI nuclear signal decrease) was > 25 µM (inactive) in test [1] (mean of runs), above 25 µM in test [1] (run 1) and above 25 µM in test [1] (run 2). Further, the IC50 in test [2] (run 1) was above 25 µM; in test [2] (run 2), 22.5 µM.

For `CCN(CC)CCCN(C(=O)c1cccs1)c1nc(-c2ccc(OC)cc2)cs1`, the IC50 cytotoxicity (DAPI nuclear signal decrease) is > 25 µM (inactive) in test [1] (mean of runs), above 25 µM in test [1] (run 1) and above 25 µM in test [1] (run 2). Also, the IC50 was 10.3 µM in test [2] (mean of runs), 10.5 µM in test [2] (run 1) and 10 µM in test [2] (run 2).

On to `CCOc1cc2c(cc1O)CCC1C2CCC2(C)C(O)CCC12` (stereo not given), for which the IC50 cytotoxicity (DAPI nuclear signal decrease) in test [1] (mean of runs) is > 25 µM (inactive); in test [1] (run 1), above 25 µM; in test [1] (run 2) it was above 25 µM. In addition, the values for the half-maximal inhibitory concentration (IC50) in test [2] (run 1) and in test [2] (run 2) were 17.4 µM and above 25 µM, respectively.

Take `CCc1cc2c3c(c1)C1(C(=O)N3C(C)(C)C=C2C)C(C#N)=C(N)Oc2[nH]c(=O)[nH]c(=O)c21` (stereo not given): the IC50 cytotoxicity (DAPI nuclear signal decrease) was > 25 µM (inactive) in test [1] (mean of runs), above 25 µM in test [1] (run 1) and above 25 µM in test [1] (run 2). The IC50 is > 25 µM (inactive) in test [2] (mean of runs), above 25 µM in test [2] (run 1) and above 25 µM in test [2] (run 2).

Consider `CSc1ccc(C2=C/C(=C3/SC(=S)NC3=O)c3ccccc3O2)cc1`, for which the values for the IC50 cytotoxicity (DAPI nuclear signal decrease) in test [1] (mean of runs), in test [1] (run 1) and in test [1] (run 2) were > 25 µM (inactive), above 25 µM and above 25 µM, respectively. The IC50 in test [2] (mean of runs) is 14.6 µM; in test [2] (run 1), 11.8 µM; in test [2] (run 2) it was 17.3 µM.

Regarding `Cc1noc(C)c1CSc1nc2[nH]ncc2c(=O)n1-c1ccccc1`, the IC50 cytotoxicity (DAPI nuclear signal decrease) in test [1] (run 1) and in test [1] (run 2) was above 25 µM each time. Also, the figures for the concentration for half-maximal inhibition (IC50) in test [2] (mean of runs), in test [2] (run 1) and in test [2] (run 2) were 4.41 µM, 3.41 µM and 5.41 µM, respectively.

Take `Cc1ccc(Cn2cc(/C=N/NC(=O)Cc3nnc(NC(=O)c4ccc(C)cc4)s3)c3ccccc32)cc1`: the results for the IC50 cytotoxicity (DAPI nuclear signal decrease) in test [1] (mean of runs), in test [1] (run 1) and in test [1] (run 2) were 16 µM (inactive), 13.1 µM and 19 µM, respectively. Further, the IC50 in test [2] (mean of runs) is > 25 µM (inactive); in test [2] (run 1) it was above 25 µM; in test [2] (run 2) it was above 25 µM.

As for `C=CCC[C@H](Cc1ccc(F)cc1)C(=O)OC[C@@H](NC(=O)[C@@H](CC=C)CC(=O)N(CCO)Cc1ccccc1)C(C)(C)C`, the IC50 cytotoxicity (DAPI nuclear signal decrease) in test [1] (run 1) and in test [1] (run 2) was above 25 µM each time. The IC50 in test [2] (mean of runs) was 2.94 µM; in test [2] (run 1), 2.57 µM; in test [2] (run 2) it was 3.32 µM.

In the case of `CCCCCC(=O)Nc1nc(C)c(-c2csc(Nc3cc(OC)ccc3OC)n2)s1`, the IC50 cytotoxicity (DAPI nuclear signal decrease) in test [1] (mean of runs) was > 25 µM (inactive); in test [1] (run 1), above 25 µM; in test [1] (run 2), above 25 µM. The results for the IC50 in test [2] (mean of runs), in test [2] (run 1) and in test [2] (run 2) were 14.6 µM, 13.3 µM and 15.8 µM, respectively.

In the case of `COc1ccc(-c2nn(-c3ccccc3)cc2/C=C/C(=O)OCC(=O)Nc2ccccc2C#N)cc1`, the IC50 cytotoxicity (DAPI nuclear signal decrease) in test [1] (mean of runs) was > 25 µM (inactive); in test [1] (run 1), above 25 µM; in test [1] (run 2), above 25 µM. Besides, the figures for the IC50 in test [2] (run 1) and in test [2] (run 2) were 16.5 µM and above 25 µM, respectively.

Take `O=[N+]([O-])c1ccccc1/C=C/C=N/Nc1ccc(S(=O)(=O)Nc2ccc(Cl)cc2)cc1[N+](=O)[O-]`: the IC50 cytotoxicity (DAPI nuclear signal decrease) in test [1] (run 1) and in test [1] (run 2) was above 25 µM each time. In addition, the IC50 in test [2] (mean of runs) is 4.41 µM; in test [2] (run 1), 3.5 µM; in test [2] (run 2) it was 5.32 µM.

Consider `CC(C)NC(=O)N(C)C[C@H]1Oc2cc(C#Cc3ccc(F)cc3)ccc2S(=O)(=O)N([C@H](C)CO)C[C@H]1C`, for which the values for the IC50 cytotoxicity (DAPI nuclear signal decrease) in test [1] (mean of runs), in test [1] (run 1) and in test [1] (run 2) were > 25 µM (inactive), above 25 µM and above 25 µM, respectively. Further, the IC50 in test [2] (mean of runs) was 8.39 µM; in test [2] (run 1), 11 µM; in test [2] (run 2) it was 5.81 µM.

As for `Cc1cc(C)c2nc(-c3ccncc3)cc(C(=O)N3CCN(Cc4ccccc4Cl)CC3)c2c1`, the figures for the IC50 cytotoxicity (DAPI nuclear signal decrease) in test [1] (mean of runs), in test [1] (run 1) and in test [1] (run 2) were > 25 µM (inactive), above 25 µM and above 25 µM, respectively. The IC50 is 12.1 µM in test [2] (mean of runs), 14.2 µM in test [2] (run 1) and 10.1 µM in test [2] (run 2).

Regarding `CCOc1ccccc1NC(=O)C1CCN(C(=O)NCc2ccccc2)CC1`, the values for the IC50 cytotoxicity (DAPI nuclear signal decrease) in test [1] (mean of runs), in test [1] (run 1) and in test [1] (run 2) were > 25 µM (inactive), above 25 µM and above 25 µM, respectively. In addition, the IC50 is > 25 µM (inactive) in test [2] (mean of runs), above 25 µM in test [2] (run 1) and above 25 µM in test [2] (run 2).
